Measured values reported in US20210069143A1, “LOW-ALCOHOL ANTIMICROBIAL COMPOSITION AND USE THEREOF” (Zurex Pharma, Inc., priority 2017, published 2021).

Experiments:
[1] = Gamma radiation (25-40 kGy) and 5-month storage stability of composition components in HDPE bottles; format: physicochemical; settings: for % Change (Unexposed vs. Exposed) / % LC, Exposed / % LC, Unexposed / Concentration % Change, T = 0 vs. T = 5 Months / % IPA, Exposed / % IPA, Unexposed: HDPE bottle
Procedure: An antimicrobial composition comprising isopropyl alcohol, citric acid, methyl paraben, propyl paraben, and methylene blue in HDPE bottles was exposed to 25-40 kGy radiation, and the amount of each component detected in the solution before and after radiation was tested. The testing was repeated after 5 months of storage. The results are presented in Tables 1 and 2, below, wherein “exposed” indicates the samples exposed to gamma radiation and “unexposed” indicates the samples that were not exposed to gamma radiation.

tested microorganisms = test: Antimicrobial effect of components individually and together at various dilutions; format: cell-based; settings: against most tested microorganisms
Procedure: The antimicrobial effect of various components of the composition of Example 1 were tested individually and together at various dilutions. The results are presented in FIG. 1A-1I, wherein shaded boxes indicate no significant response (<3 log10 reduction).

[2] = T = 0, exposed to 25-40 kGy gamma radiation
[3] = T = 0, not exposed to gamma radiation
[4] = T = 5 months, exposed to 25-40 kGy gamma radiation
[5] = T = 5 months, not exposed to gamma radiation

Compound: CN(C)c1ccc2nc3ccc(=[N+](C)C)cc-3sc2c1 [Methylene Blue, methylene blue]
- share of component in solution degraded by gamma radiation ([1]; 25-40 kGy, HDPE bottles, accompanied by a color change): approximately 50%
- % Change (Unexposed vs. Exposed) ([1]; T = 0): −57.4%
- % LC, Exposed [1, 2]: 44.9 % LC
- % LC, Unexposed [1, 3]: 105.5 % LC
- % Change (Unexposed vs. Exposed) ([1]; T = 5 months): −49.4%
- % LC, Exposed [1, 4]: 47.3 % LC
- % LC, Unexposed [1, 5]: 93.4 % LC
- antimicrobial effect, alone (tested microorganisms; all tested concentrations): little to no effect

Compound: O=C(O)CC(O)(CC(=O)O)C(=O)O [citrate]
- antimicrobial effect, alone (tested microorganisms; all tested concentrations): little to no effect

Compound: CC(C)O [IPA, isopropyl alcohol]
- change in amount of component upon gamma radiation ([1]; 25-40 kGy, HDPE bottles): negligible
- Concentration % Change, T = 0 vs. T = 5 Months ([1]; Exposed to gamma radiation): 0.7%
- % Change (Unexposed vs. Exposed) ([1]; T = 0): 1.2%
- % IPA, Exposed [1, 2]: 68.6%
- % IPA, Unexposed [1, 3]: 68.1%
- % Change (Unexposed vs. Exposed) ([1]; T = 5 months): −0.1%
- % IPA, Exposed [1, 4]: 69.1%
- % IPA, Unexposed [1, 5]: 69.2%
- Concentration % Change, T = 0 vs. T = 5 Months ([1]; Unexposed): 1.6%
- antimicrobial effect, alone (tested microorganisms; 25% v/v strength solution): little to no effect

Compound: O=C(O)CC(O)(CC(=O)O)C(=O)O [Citric Acid, citric acid]
- change in amount of component upon gamma radiation ([1]; 25-40 kGy, HDPE bottles): negligible
- Concentration % Change, T = 0 vs. T = 5 Months ([1]; Exposed to gamma radiation): −4.0%
- % Change (Unexposed vs. Exposed) ([1]; T = 0): 1.1%
- % LC, Exposed [1, 2]: 97.4 % LC
- % LC, Unexposed [1, 3]: 96.3 % LC
- % Change (Unexposed vs. Exposed) ([1]; T = 5 months): 0.4%
- % LC, Exposed [1, 4]: 93.5 % LC
- % LC, Unexposed [1, 5]: 93.1 % LC
- Concentration % Change, T = 0 vs. T = 5 Months ([1]; Unexposed): −3.3%

Compound: COC(=O)c1ccc(O)cc1 [Methylparaben, methyl-para-hydroxybenzoate]
- Concentration % Change, T = 0 vs. T = 5 Months ([1]; Exposed to gamma radiation): 0.7%
- % Change (Unexposed vs. Exposed) ([1]; T = 0): −0.4%
- % LC, Exposed [1, 2]: 74.5 % LC
- % LC, Unexposed [1, 3]: 74.8 % LC
- % Change (Unexposed vs. Exposed) ([1]; T = 5 months): −0.3%
- % LC, Exposed [1, 4]: 75.0 % LC
- % LC, Unexposed [1, 5]: 75.2 % LC
- Concentration % Change, T = 0 vs. T = 5 Months ([1]; Unexposed): 0.5%

Compound: CCCOC(=O)c1ccc(O)cc1 [Propylparaben, propyl-para-hydroxybenzoate]
- Concentration % Change, T = 0 vs. T = 5 Months ([1]; Exposed to gamma radiation): 0.4%
- % Change (Unexposed vs. Exposed) ([1]; T = 0): 0%
- % LC, Exposed [1, 2]: 74.9 % LC
- % LC, Unexposed [1, 3]: 74.9 % LC
- % Change (Unexposed vs. Exposed) ([1]; T = 5 months): −0.1%
- % LC, Exposed [1, 4]: 75.2 % LC
- % LC, Unexposed [1, 5]: 75.3 % LC
- Concentration % Change, T = 0 vs. T = 5 Months ([1]; Unexposed): 0.5%
